In US20220119354A1, “DIAMINO-SUBSTITUTED PYRIDINES AND PYRIMIDINES AS HERBICIDES” (FMC Corporation, priority 2019, published 2022):

Key:
Assay type in all cases: in vivo
[1] = tested on: pigweed (Amaranthus retroflexus); test: Test A postemergence, pigweed; conditions: 0 to 100 scale, 0 no effect, 100 complete control
How it was run: (§1)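 Steps: plant seeds in loam/sand; spray soil (pre) or seedlings at 1–2 leaves, 2–10 cm (post) with compound in solvent plus surfactant; keep in greenhouse ~10 d; score injury visually against untreated controls, 0–100.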

kochia (Kochia scoparia) [2] = test: Test A preemergence, kochia; conditions: 0 to 100 scale, 0 is no effect, 100 is complete control
How it was run: as §1

[3] = tested on: ducksalad (Heteranthera limosa); test: Test B flooded paddy test, ducksalad; conditions: Flood, 250 g ai/ha, applied to paddy water, 2-leaf stage, visual evaluation after 13 to 15 d
How it was run: (§2)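 Plants grown to 2-leaf stage. Compounds applied directly into paddy water flooded 3 cm above soil, with that depth kept throughout. After 13–15 d in greenhouse, visual rating versus controls on a 0–100 scale (0 no effect, 100 complete control).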

[4] = tested on: ryegrass, Italian (Lolium multiflorum); test: Test A preemergence, Italian ryegrass; conditions: 0 to 100 scale, 0 is no effect, 100 is complete control
How it was run: as §1

[5] = tested on: foxtail, giant (Setaria faberii); test: Test A postemergence, giant foxtail; conditions: 0 to 100 scale, 0 no effect, 100 complete control
How it was run: as §1

corn (Zea mays) = test: Test A postemergence, corn; conditions: 0 to 100 scale, 0 no effect, 100 complete control
How it was run: as §1

[6] = tested on: barnyardgrass (Echinochloa crus-galli); test: Test A postemergence, barnyardgrass; conditions: 0 to 100 scale, 0 no effect, 100 complete control
How it was run: as §1

[7] = tested on: barnyardgrass (Echinochloa crus-galli); test: Test B flooded paddy test, barnyardgrass; conditions: Flood, 250 g ai/ha, applied to paddy water, 2-leaf stage, visual evaluation after 13 to 15 d
How it was run: as §2

[8] = tested on: sedge, umbrella (small-flower umbrella sedge, Cyperus difformis); test: Test B flooded paddy test, umbrella sedge; conditions: Flood, 250 g ai/ha, applied to paddy water, 2-leaf stage, visual evaluation after 13 to 15 d
How it was run: as §2

[9] = tested on: ryegrass, Italian (Lolium multiflorum); test: Test A postemergence, Italian ryegrass; conditions: 0 to 100 scale, 0 no effect, 100 complete control
How it was run: as §1

[10] = tested on: ragweed (common ragweed, Ambrosia elatior); test: Test A preemergence, ragweed; conditions: 0 to 100 scale, 0 is no effect, 100 is complete control
How it was run: as §1

[11] = tested on: pigweed (Amaranthus retroflexus); test: Test A preemergence, pigweed; conditions: 0 to 100 scale, 0 is no effect, 100 is complete control
How it was run: as §1

[12] = tested on: blackgrass (Alopecurus myosuroides); test: Test A postemergence, blackgrass; conditions: 0 to 100 scale, 0 no effect, 100 complete control
How it was run: as §1

[13] = tested on: wheat (Triticum aestivum); test: Test A postemergence, wheat; conditions: 0 to 100 scale, 0 no effect, 100 complete control
How it was run: as §1

kochia (Kochia scoparia) [14] = test: Test A postemergence, kochia; conditions: 0 to 100 scale, 0 no effect, 100 complete control
How it was run: as §1

[15] = tested on: galium (catchweed bedstraw, Galium aparine); test: Test A postemergence, galium; conditions: 0 to 100 scale, 0 no effect, 100 complete control
How it was run: as §1

[16] = tested on: barnyardgrass (Echinochloa crus-galli); test: Test A preemergence, barnyardgrass; conditions: 0 to 100 scale, 0 is no effect, 100 is complete control
How it was run: as §1

[17] = tested on: foxtail, giant (Setaria faberii); test: Test A preemergence, giant foxtail; conditions: 0 to 100 scale, 0 is no effect, 100 is complete control
How it was run: as §1

[18] = tested on: ragweed (common ragweed, Ambrosia elatior); test: Test A postemergence, ragweed; conditions: 0 to 100 scale, 0 no effect, 100 complete control
How it was run: as §1

rice (Oryza sativa) = test: Test B flooded paddy test, rice; conditions: Flood, 250 g ai/ha, applied to paddy water, 2-leaf stage, visual evaluation after 13 to 15 d
How it was run: as §2

| Compound | Plant response rating, Pigweed ([1]; 125 g ai/ha) | Plant response rating, Pigweed ([1]; 500 g ai/ha) | Kochia plant response rating (kochia (Kochia scoparia) [2]; 125 g ai/ha) | Kochia plant response rating (kochia (Kochia scoparia) [2]; 500 g ai/ha) | Plant response rating, Ducksalad (0 to 100 scale, 0 is no effect, 100 is complete control) [3] | Ryegrass, Italian plant response rating ([4]; 125 g ai/ha) | Ryegrass, Italian plant response rating ([4]; 500 g ai/ha) | Plant response rating, Foxtail, Giant ([5]; 125 g ai/ha) | Plant response rating, Foxtail, Giant ([5]; 500 g ai/ha) | Plant response rating, Corn (corn (Zea mays); 125 g ai/ha) | Plant response rating, Corn (corn (Zea mays); 500 g ai/ha) | Plant response rating, Barnyardgrass ([6]; 125 g ai/ha) | Plant response rating, Barnyardgrass ([6]; 500 g ai/ha) | Plant response rating, Barnyardgrass (0 to 100 scale, 0 is no effect, 100 is complete control) [7] | Plant response rating, Sedge, Umbrella (0 to 100 scale, 0 is no effect, 100 is complete control) [8] | Plant response rating, Ryegrass, Italian ([9]; 125 g ai/ha) | Plant response rating, Ryegrass, Italian ([9]; 500 g ai/ha) | Ragweed plant response rating ([10]; 125 g ai/ha) | Ragweed plant response rating ([10]; 500 g ai/ha) | Pigweed plant response rating ([11]; 125 g ai/ha) | also measured |
| --- | --- | --- | --- | --- | --- | --- | --- | --- | --- | --- | --- | --- | --- | --- | --- | --- | --- | --- | --- | --- | --- |
| C[C@@H](Nc1nc(N)c(C(F)(F)F)c(C(F)(F)F)n1)c1cc2ccccc2o1 [Compound 65] | 0 | 30 | 0 | 0 | 0 | 0 | 0 | 0 | 0 | 0 | 0 | 0 | 0 | 0 | 0 | 0 | 0 | 0 | 40 | 0 | Pigweed plant response rating ([11]; 500 g ai/ha): 0; Plant response rating, Blackgrass ([12]; 125 g ai/ha): 0; Plant response rating, Blackgrass ([12]; 500 g ai/ha): 0; Plant response rating, Wheat ([13]; 125 g ai/ha): 30; Plant response rating, Wheat ([13]; 500 g ai/ha): 30; Plant response rating, Kochia (kochia (Kochia scoparia) [14]; 125 g ai/ha): 0; Plant response rating, Kochia (kochia (Kochia scoparia) [14]; 500 g ai/ha): 60; Plant response rating, Galium ([15]; 125 g ai/ha): 0; Plant response rating, Galium ([15]; 500 g ai/ha): 0; Barnyardgrass plant response rating ([16]; 125 g ai/ha): 0; Barnyardgrass plant response rating ([16]; 500 g ai/ha): 0; Foxtail, Giant plant response rating ([17]; 125 g ai/ha): 0; Foxtail, Giant plant response rating ([17]; 500 g ai/ha): 0; Plant response rating, Ragweed ([18]; 125 g ai/ha): 0; Plant response rating, Ragweed ([18]; 500 g ai/ha): 0; Plant response rating, Rice (0 to 100 scale, 0 is no effect, 100 is complete control) (rice (Oryza sativa)): 0 |
| C[C@H](Nc1nc(N)c(C(F)(F)F)c(C(F)(F)F)n1)c1cc2ccccc2o1 [Compound 66] | 30 | 100 | 0 | 0 | 0 | 0 | 0 | 0 | 0 | 0 | 20 | 0 | 30 | 0 | 0 | 0 | 0 | 0 | 0 | 0 | Pigweed plant response rating ([11]; 500 g ai/ha): 0; Plant response rating, Blackgrass ([12]; 125 g ai/ha): 0; Plant response rating, Blackgrass ([12]; 500 g ai/ha): 30; Plant response rating, Wheat ([13]; 125 g ai/ha): 0; Plant response rating, Wheat ([13]; 500 g ai/ha): 0; Plant response rating, Kochia (kochia (Kochia scoparia) [14]; 125 g ai/ha): 20; Plant response rating, Kochia (kochia (Kochia scoparia) [14]; 500 g ai/ha): 90; Plant response rating, Galium ([15]; 125 g ai/ha): 30; Plant response rating, Galium ([15]; 500 g ai/ha): 40; Barnyardgrass plant response rating ([16]; 125 g ai/ha): 0; Barnyardgrass plant response rating ([16]; 500 g ai/ha): 0; Foxtail, Giant plant response rating ([17]; 125 g ai/ha): 0; Foxtail, Giant plant response rating ([17]; 500 g ai/ha): 0; Plant response rating, Ragweed ([18]; 125 g ai/ha): 0; Plant response rating, Ragweed ([18]; 500 g ai/ha): 20; Plant response rating, Rice (0 to 100 scale, 0 is no effect, 100 is complete control) (rice (Oryza sativa)): 0 |
